Results reported in ChEMBL document CHEMBL3994622, “Design and synthesis of new RAF kinase-inhibiting antiproliferative quinoline derivatives. Part 2: Diarylurea derivatives” (Eur J Med Chem, 2017).

Assays:
HCC 2998 = test: Growth inhibition of human HCC2998 cells assessed as cell growth at 10 uM incubated for 48 hrs by sulforhodamine B assay relative to control; type: functional; settings: HCC 2998, 48 h, read-out: Activity
SNB-19 = test: Growth inhibition of human SNB19 cells assessed as cell growth at 10 uM incubated for 48 hrs by sulforhodamine B assay relative to control; type: functional; settings: SNB-19, 48 h, read-out: Activity
MCF7 [1] = test: Growth inhibition of human MCF7 cells incubated for 48 hrs by sulforhodamine B assay; type: functional; settings: MCF7, 48 h; for CC50: read-out: LC50 (the source's name)
CAKI-1 [2] = test: Growth inhibition of human Caki1 cells assessed as cell growth at 10 uM incubated for 48 hrs by sulforhodamine B assay relative to control; type: functional; settings: CAKI-1, 48 h, read-out: Activity
RXF 393 = test: Growth inhibition of human RXF393 cells assessed as cell growth at 10 uM incubated for 48 hrs by sulforhodamine B assay relative to control; type: functional; settings: RXF 393, 48 h, read-out: Activity
EKVX = test: Growth inhibition of human EKVX cells assessed as cell growth at 10 uM incubated for 48 hrs by sulforhodamine B assay relative to control; type: functional; settings: read-out: Activity
T47D [3] = test: Growth inhibition of human T47D cells assessed as cell growth at 10 uM incubated for 48 hrs by sulforhodamine B assay relative to control; type: functional; settings: read-out: Activity
CAKI-1 [4] = test: Growth inhibition of human Caki1 cells incubated for 48 hrs by sulforhodamine B assay; type: functional; settings: CAKI-1, 48 h; for CC50: read-out: LC50 (the source's name)
MCF7 [5] = test: Growth inhibition of human MCF7 cells assessed as cell growth at 10 uM incubated for 48 hrs by sulforhodamine B assay relative to control; type: functional; settings: MCF7, 48 h, read-out: Activity
[6] = molecular target: RAF proto-oncogene serine/threonine-protein kinase (Homo sapiens, UniProt P04049); test: Inhibition of human c-RAF at 10 uM using MEK1 as substrate in presence of [33P]ATP by Hotspot assay relative to control
RAF proto-oncogene serine/threonine-protein kinase, sequence (P04049 whole entry): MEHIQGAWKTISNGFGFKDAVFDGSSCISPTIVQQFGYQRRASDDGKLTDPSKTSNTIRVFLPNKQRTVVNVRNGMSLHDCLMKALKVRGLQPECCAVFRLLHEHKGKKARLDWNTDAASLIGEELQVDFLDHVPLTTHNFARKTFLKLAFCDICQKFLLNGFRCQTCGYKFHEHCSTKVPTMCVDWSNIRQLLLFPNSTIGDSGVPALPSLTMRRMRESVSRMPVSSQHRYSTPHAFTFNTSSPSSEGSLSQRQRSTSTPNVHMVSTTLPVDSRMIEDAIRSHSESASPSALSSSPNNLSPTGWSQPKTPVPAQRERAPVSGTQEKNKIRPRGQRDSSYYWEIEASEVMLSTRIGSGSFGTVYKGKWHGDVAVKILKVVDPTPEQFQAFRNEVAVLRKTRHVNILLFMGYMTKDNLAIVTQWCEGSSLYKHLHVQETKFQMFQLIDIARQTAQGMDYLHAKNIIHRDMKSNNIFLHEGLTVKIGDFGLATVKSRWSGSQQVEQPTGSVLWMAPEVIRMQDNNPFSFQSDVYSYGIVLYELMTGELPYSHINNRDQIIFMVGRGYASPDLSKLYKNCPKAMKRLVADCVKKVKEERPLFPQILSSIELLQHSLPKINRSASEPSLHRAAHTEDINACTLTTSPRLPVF

SK-OV-3 = test: Growth inhibition of human SKOV3 cells assessed as cell growth at 10 uM incubated for 48 hrs by sulforhodamine B assay relative to control; type: functional; settings: SK-OV-3, 48 h, read-out: Activity
BT-549 = test: Growth inhibition of human BT549 cells assessed as cell growth at 10 uM incubated for 48 hrs by sulforhodamine B assay relative to control; type: functional; settings: BT-549, 48 h, read-out: Activity
A549 = test: Growth inhibition of human A549/ATCC cells assessed as cell growth at 10 uM incubated for 48 hrs by sulforhodamine B assay relative to control; type: functional; settings: A549, 48 h, read-out: Activity
COLO 205 = test: Growth inhibition of human COLO205 cells assessed as cell growth at 10 uM incubated for 48 hrs by sulforhodamine B assay relative to control; type: functional; settings: COLO 205, 48 h, read-out: Activity
SW-620 = test: Growth inhibition of human SW620 cells assessed as cell growth at 10 uM incubated for 48 hrs by sulforhodamine B assay relative to control; type: functional; settings: SW-620, 48 h, read-out: Activity
T47D [7] = test: Growth inhibition of human T47D cells incubated for 48 hrs by sulforhodamine B assay; type: functional; settings: for CC50: read-out: LC50 (the source's name)
NCI-H460 = test: Growth inhibition of human NCI-H460 cells assessed as cell growth at 10 uM incubated for 48 hrs by sulforhodamine B assay relative to control; type: functional; settings: NCI-H460, 48 h, read-out: Activity
LOX IMVI = test: Growth inhibition of human LOXIMVI cells assessed as cell growth at 10 uM incubated for 48 hrs by sulforhodamine B assay relative to control; type: functional; settings: read-out: Activity
NCI/ADR-RES = test: Growth inhibition of human NCI/ADR-RES cells assessed as cell growth at 10 uM incubated for 48 hrs by sulforhodamine B assay relative to control; type: functional; settings: read-out: Activity
SK-MEL-5 = test: Growth inhibition of human SK-MEL-5 cells assessed as cell growth at 10 uM incubated for 48 hrs by sulforhodamine B assay relative to control; type: functional; settings: SK-MEL-5, 48 h, read-out: Activity
ACHN = test: Growth inhibition of human ACHN cells assessed as cell growth at 10 uM incubated for 48 hrs by sulforhodamine B assay relative to control; type: functional; settings: read-out: Activity
OVCAR-3 = test: Growth inhibition of human OVCAR3 cells assessed as cell growth at 10 uM incubated for 48 hrs by sulforhodamine B assay relative to control; type: functional; settings: OVCAR-3, 48 h, read-out: Activity
MDA-MB-231 [8] = test: Growth inhibition of human MDA-MB-231 cells incubated for 48 hrs by sulforhodamine B assay; type: functional; settings: MDA-MB-231, 48 h; for CC50: read-out: LC50 (the source's name)
NCI-H522 = test: Growth inhibition of human NCI-H522 cells assessed as cell growth at 10 uM incubated for 48 hrs by sulforhodamine B assay relative to control; type: functional; settings: NCI-H522, 48 h, read-out: Activity
OVCAR-5 = test: Growth inhibition of human OVCAR5 cells assessed as cell growth at 10 uM incubated for 48 hrs by sulforhodamine B assay relative to control; type: functional; settings: OVCAR-5, 48 h, read-out: Activity
HCT-15 = test: Growth inhibition of human HCT15 cells incubated for 48 hrs by sulforhodamine B assay; type: functional; settings: HCT-15, 48 h
HOP-62 = test: Growth inhibition of human HOP62 cells incubated for 48 hrs by sulforhodamine B assay; type: functional; settings: HOP-62, 48 h; for CC50: read-out: LC50 (the source's name)
RPMI-8226 = test: Growth inhibition of human RPMI8226 cells assessed as cell growth at 10 uM incubated for 48 hrs by sulforhodamine B assay relative to control; type: functional; settings: RPMI-8226, 48 h, read-out: Activity
SF-268 = test: Growth inhibition of human SF268 cells incubated for 48 hrs by sulforhodamine B assay; type: functional; settings: SF-268, 48 h
A498 = test: Growth inhibition of human A498 cells assessed as cell growth at 10 uM incubated for 48 hrs by sulforhodamine B assay relative to control; type: functional; settings: A498, 48 h, read-out: Activity
IGROV-1 = test: Growth inhibition of human IGROV1 cells assessed as cell growth at 10 uM incubated for 48 hrs by sulforhodamine B assay relative to control; type: functional; settings: IGROV-1, 48 h, read-out: Activity
MDA-MB-231 [9] = test: Growth inhibition of human MDA-MB-231 cells assessed as cell growth at 10 uM incubated for 48 hrs by sulforhodamine B assay relative to control; type: functional; settings: MDA-MB-231, 48 h, read-out: Activity
SK-MEL-2 = test: Growth inhibition of human SK-MEL-2 cells assessed as cell growth at 10 uM incubated for 48 hrs by sulforhodamine B assay relative to control; type: functional; settings: SK-MEL-2, 48 h, read-out: Activity

COc1cc2cc(Oc3ccc(NC(=O)Nc4ccc(Cl)c(Cl)c4)cc3)c(C)nc2cc1OC
growth at 10 µM (HCC 2998): 37.6%
growth at 10 µM (SNB-19): 28.6%
GI50 (MCF7 [1]): 2.89 µM
TGI (MCF7 [1]): 13.8 µM
CC50 (MCF7 [1]): > 100 µM
growth at 10 µM (CAKI-1 [2]): 21.8%
growth at 10 µM (RXF 393): 22.3%
growth at 10 µM (EKVX): 21%
growth at 10 µM (T47D [3]): 60.9%
GI50 (CAKI-1 [4]): 2.12 µM
TGI (CAKI-1 [4]): 6.65 µM
CC50 (CAKI-1 [4]): 49.5 µM
growth at 10 µM (MCF7 [5]): 13.8%
inhibition [6]: 97.8%
growth at 10 µM (SK-OV-3): 28.6%
growth at 10 µM (BT-549): 28.1%
growth at 10 µM (A549): 4.35%
growth at 10 µM (COLO 205): 4.03%
growth at 10 µM (SW-620): 23.4%
GI50 (T47D [7]): 2.7 µM
TGI (T47D [7]): 10.1 µM
CC50 (T47D [7]): 84.7 µM
growth at 10 µM (NCI-H460): 3.68%
growth at 10 µM (LOX IMVI): 23.1%
growth at 10 µM (NCI/ADR-RES): 17.1%
growth at 10 µM (SK-MEL-5): -35%
growth at 10 µM (ACHN): 16.4%
growth at 10 µM (OVCAR-3): -10%
GI50 (MDA-MB-231 [8]): 2.46 µM
TGI (MDA-MB-231 [8]): 12 µM
CC50 (MDA-MB-231 [8]): 34.6 µM
growth at 10 µM (NCI-H522): -13.8%
growth at 10 µM (OVCAR-5): 53%
GI50 (HCT-15): 3.56 µM
LC50 (lethal concentration, 50% net cell kill) (HCT-15): > 100 µM
TGI (HCT-15): > 100 µM
GI50 (HOP-62): 3.55 µM
TGI (HOP-62): 11.9 µM
CC50 (HOP-62): 34.4 µM
growth at 10 µM (RPMI-8226): 4.2%
GI50 (SF-268): 8.23 µM
LC50 (50% lethal concentration) (SF-268): > 100 µM
TGI (SF-268): > 100 µM
growth at 10 µM (A498): 35.8%
growth at 10 µM (IGROV-1): 18.6%
growth at 10 µM (MDA-MB-231 [9]): 47.8%
growth at 10 µM (SK-MEL-2): -7.82%

COc1cc2cc(Oc3ccc(NC(=O)Nc4cc(C(F)(F)F)cc(C(F)(F)F)c4)cc3)c(C)nc2cc1OC
growth at 10 µM (HCC 2998): 21.3%
growth at 10 µM (SNB-19): 15.5%
GI50 (MCF7 [1]): 0.54 µM
TGI (MCF7 [1]): 2.36 µM
CC50 (MCF7 [1]): 5.75 µM
growth at 10 µM (CAKI-1 [2]): 6.4%
growth at 10 µM (RXF 393): -24.5%
growth at 10 µM (EKVX): 2.88%
growth at 10 µM (T47D [3]): 7.52%
GI50 (CAKI-1 [4]): 1.41 µM
TGI (CAKI-1 [4]): 5.1 µM
CC50 (CAKI-1 [4]): 15.3 µM
growth at 10 µM (MCF7 [5]): 0.59%
inhibition [6]: 92.4%
growth at 10 µM (SK-OV-3): -1.05%
growth at 10 µM (BT-549): 1.44%
growth at 10 µM (A549): 5.93%
growth at 10 µM (COLO 205): -81.2%
growth at 10 µM (SW-620): 15.9%
GI50 (T47D [7]): 1.48 µM
TGI (T47D [7]): 5.67 µM
CC50 (T47D [7]): 29.1 µM
growth at 10 µM (NCI-H460): 7%
growth at 10 µM (LOX IMVI): 1.98%
growth at 10 µM (NCI/ADR-RES): 7.03%
growth at 10 µM (SK-MEL-5): -58.5%
growth at 10 µM (ACHN): 5.82%
growth at 10 µM (OVCAR-3): 1.71%
GI50 (MDA-MB-231 [8]): 1.08 µM
TGI (MDA-MB-231 [8]): 2.49 µM
CC50 (MDA-MB-231 [8]): > 100 µM
growth at 10 µM (NCI-H522): -33.4%
growth at 10 µM (OVCAR-5): 14.6%
GI50 (HCT-15): 0.668 to 0.67 µM
LC50 (lethal concentration, 50% net cell kill) (HCT-15): 4.91 µM
TGI (HCT-15): 2.04 µM
GI50 (HOP-62): 1.35 µM
TGI (HOP-62): 2.88 µM
CC50 (HOP-62): 6.15 µM
growth at 10 µM (RPMI-8226): 1.15%
GI50 (SF-268): 1.62 µM
LC50 (50% lethal concentration) (SF-268): 8.37 µM
TGI (SF-268): 3.68 µM
growth at 10 µM (A498): -11.5%
growth at 10 µM (IGROV-1): 19.9%
growth at 10 µM (MDA-MB-231 [9]): -36.1%
growth at 10 µM (SK-MEL-2): -30.4%
